# Laboratory results from patent publication US20240409552A1, “GUAIANOLIDE OLIGOMERS, PREPARATION METHOD AND APPLICATION” (KUNMING INSTITUTE OF BOTANY, CHINESE ACADEMY OF SCIENCES, priority 2021, published 2024).
# pIC50: −log10 of the molar value.
# Assays:
# Assay type in all cases: cell-based
# HepG2 cells = experiment: MTT antihepatoma assay, HepG2 cells; conditions: Homo sapiens, 48 h incubation
# Procedure: (§1) • (1). […] The plates were measured at 490 nm using a microplate reader (BIO-RAD, USA). The inhibitory ratio was calculated as [(A490 negative−A490 treated)/(A490 negative−A490 blank)]×100%. The IC50 values were calculated with GraphPad Prism 5 (GraphPad Software, California, USA). Repeat the experiment three times.
# Huh7 cells = experiment: MTT antihepatoma assay, Huh7 cells; conditions: Homo sapiens, Huh-7, 48 h incubation
# Procedure: as §1
# SK-Hep-1 cells = experiment: MTT antihepatoma assay, SK-Hep-1 cells; conditions: Homo sapiens, SK-HEP1, 48 h incubation
# Procedure: as §1
SMILES,pIC50 (HepG2 cells),pIC50 (Huh7 cells),pIC50 (SK-Hep-1 cells)
"CNC(=O)c1cc(Oc2ccc(NC(=O)Nc3ccc(Cl)c(C(F)(F)F)c3)cc2)ccn1 [sorafenib, reference compound]",4.89,4.96,4.65
C=C1C(=O)O[C@@H]2C3=C([C@H]4C[C@]3(C)[C@]3(C4)C(=O)O[C@@H]4C5=C([C@H]6C[C@]5(C)[C@]5(C6)C(=O)O[C@@H]6C7=C([C@H]8C[C@]7(C)[C@]7(C8)C(=O)O[C@@H]8[C@H]9C(C)=CC[C@@]9%10O[C@@]%10(C)CC[C@@H]87)[C@@](C)(O)CC[C@H]65)[C@@](C)(O)CC[C@H]43)[C@@](C)(O)CC[C@@H]12 [Compound 4],4.83,4.96,5.10
C=C1C(=O)O[C@@H]2C3=C([C@H]4C[C@]3(C)[C@]3(C4)C(=O)O[C@@H]4C5C(=C(C)CC[C@H]43)CC[C@@]5(C)O)[C@@](C)(O)CC[C@@H]12 (stereo partly drawn) [Compound 2],5.23,4.92,4.78
C=C1C(=O)O[C@@H]2C3=C([C@H]4C[C@]3(C)[C@]3(C4)C(=O)O[C@@H]4C5=C([C@H]6C[C@]5(C)[C@]5(C6)C(=O)O[C@@H]6[C@H]7C(C)=CC[C@@]78O[C@@]8(C)CC[C@H]65)[C@@](C)(O)CC[C@H]43)[C@@](C)(O)CC[C@@H]12 [Compound 3],5.21,5.17,5.14
C=C1C(=O)O[C@@H]2C3=C([C@H]4C[C@]3(C)[C@]3(C4)C(=O)O[C@H]4[C@H]3CCC(C)=C3C[C@H]5O[C@@]5(C)[C@@H]34)[C@@](C)(O)CC[C@@H]12 [Compound 1],4.89,4.69,4.95
